Results taken from article PMC3894853 (Journal of medicinal chemistry, 2013).
Like-named read-outs stand apart in the source and are kept apart here.

Key:
hSERT WT = hSERT WT (Homo sapiens, UniProt P31645)
NET = NET (Rattus norvegicus, UniProt Q9WTR4); test: Radioligand binding assay for NET, displacement of [3H]nisoxetine
SERT = SERT (Rattus norvegicus, UniProt P31652); test: Radioligand binding assay for SERT, displacement of [3H]1; conditions: for Ki(NET)/Ki (SERT): selectivity ratio
[1] = 30 µM compound, 18°C, COS-7 membranes, hSERT WT
[2] = 30 µM compound, extrapolated from 24°C with the temperature factor of S-1

hSERT WT, sequence (P31645 whole entry): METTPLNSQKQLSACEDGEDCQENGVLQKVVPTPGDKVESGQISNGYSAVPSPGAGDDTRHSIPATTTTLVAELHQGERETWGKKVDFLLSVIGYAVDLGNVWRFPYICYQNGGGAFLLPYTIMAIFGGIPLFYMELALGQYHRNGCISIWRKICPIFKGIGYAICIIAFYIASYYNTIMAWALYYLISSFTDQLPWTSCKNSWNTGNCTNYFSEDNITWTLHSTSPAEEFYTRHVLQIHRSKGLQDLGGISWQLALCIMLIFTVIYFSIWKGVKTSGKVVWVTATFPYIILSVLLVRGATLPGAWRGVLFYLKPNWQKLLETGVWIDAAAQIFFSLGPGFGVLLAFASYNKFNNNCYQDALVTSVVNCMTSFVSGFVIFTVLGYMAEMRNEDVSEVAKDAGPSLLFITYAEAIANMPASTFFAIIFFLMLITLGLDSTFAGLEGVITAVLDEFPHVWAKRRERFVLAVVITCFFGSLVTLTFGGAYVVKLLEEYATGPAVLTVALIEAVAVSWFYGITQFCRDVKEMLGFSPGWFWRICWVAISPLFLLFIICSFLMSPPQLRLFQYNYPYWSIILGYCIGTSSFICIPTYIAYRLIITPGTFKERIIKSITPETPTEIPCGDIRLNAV
SERT, sequence (P31652 whole entry): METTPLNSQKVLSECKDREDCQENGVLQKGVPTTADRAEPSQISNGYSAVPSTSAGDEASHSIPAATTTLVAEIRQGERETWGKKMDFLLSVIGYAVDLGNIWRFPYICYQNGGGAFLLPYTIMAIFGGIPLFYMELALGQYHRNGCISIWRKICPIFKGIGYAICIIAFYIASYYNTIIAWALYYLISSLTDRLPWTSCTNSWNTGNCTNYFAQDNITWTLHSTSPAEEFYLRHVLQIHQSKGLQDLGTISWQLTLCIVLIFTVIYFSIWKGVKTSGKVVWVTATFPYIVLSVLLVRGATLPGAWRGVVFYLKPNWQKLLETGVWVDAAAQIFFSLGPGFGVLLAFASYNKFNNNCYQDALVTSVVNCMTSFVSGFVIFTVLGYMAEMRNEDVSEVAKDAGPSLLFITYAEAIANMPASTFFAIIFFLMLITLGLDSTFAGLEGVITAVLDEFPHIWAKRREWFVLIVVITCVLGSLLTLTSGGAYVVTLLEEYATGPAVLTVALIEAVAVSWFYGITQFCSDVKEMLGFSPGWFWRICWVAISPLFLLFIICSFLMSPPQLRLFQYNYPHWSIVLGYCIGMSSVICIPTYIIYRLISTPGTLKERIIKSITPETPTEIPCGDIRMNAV
NET, sequence (Q9WTR4 1-597): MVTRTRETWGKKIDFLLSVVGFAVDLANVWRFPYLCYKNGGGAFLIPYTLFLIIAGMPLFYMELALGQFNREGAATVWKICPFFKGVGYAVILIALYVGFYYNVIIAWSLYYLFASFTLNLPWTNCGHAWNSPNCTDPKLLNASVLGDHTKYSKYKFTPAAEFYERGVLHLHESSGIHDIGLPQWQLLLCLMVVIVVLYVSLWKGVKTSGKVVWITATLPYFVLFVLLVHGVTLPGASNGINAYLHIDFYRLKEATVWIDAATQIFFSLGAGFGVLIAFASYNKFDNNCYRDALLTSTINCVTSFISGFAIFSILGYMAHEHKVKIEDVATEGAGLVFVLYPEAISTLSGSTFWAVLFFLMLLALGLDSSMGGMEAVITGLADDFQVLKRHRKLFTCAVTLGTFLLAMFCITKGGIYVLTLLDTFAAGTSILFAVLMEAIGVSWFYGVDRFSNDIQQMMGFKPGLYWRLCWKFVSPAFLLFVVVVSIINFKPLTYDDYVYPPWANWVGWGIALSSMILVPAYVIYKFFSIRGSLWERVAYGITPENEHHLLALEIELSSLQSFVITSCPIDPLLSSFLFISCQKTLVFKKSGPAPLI

[3H] S-1 dissoc. t½ (min) at 18°C (hSERT WT; [1]) [min]	[3H] S-1 dissoc. t½ (min) at 18°C (hSERT WT) [min]	SMILES	further results
16.3 ± 0.1		COc1ccccc1N1CCN(Cc2ccc3c(c2)COC3(CCCN(C)C)c2ccc(F)cc2)CC1 (stereo not drawn) [Compound 9, 3-(1-(4-Fluorophenyl)-5-((4-(2-methoxyphenyl)piperazin-1-yl)methyl)-1,3-dihydroisobenzofuran-1-yl)-N,N-dimethylpropan-1-amine]	
21.4 ± 0.3		CN(C)CCCC1(c2ccc(F)cc2)OCc2cc(CNCc3ccc4c(c3)COC4(CCCN(C)C)c3ccc(F)cc3)ccc21 (stereo not drawn) [Compound 15, 3-(5-((((1-(3-(Dimethylamino)propyl)-1-(4-fluorophenyl)-1,3-dihydroisobenzofuran-5-yl)methyl)amino)methyl)-1-(4-fluorophenyl)-1,3-dihydroisobenzofuran-1-yl)-N,N-dimethylpropan-1-amine]	
		CN(C)CCCC1(c2ccc(F)cc2)OCc2cc(Br)ccc21 (stereo not drawn) [Compound 17]	Ki (NET): 28400 nM; Ki(NET)/Ki (SERT) (SERT; Table 1): >10,000
	23.1 ± 2.9	CN(C)CCCC1(c2ccc(F)cc2)OCc2cc(/C=C/Cc3ccccc3)ccc21 (stereo not drawn) [Compound 21, (E)-3-(1-(4-Fluorophenyl)-5-(3-phenylprop-1-en-1-yl)-1,3-dihydroisobenzofuran-1-yl)-N,N-dimethylpropan-1-amine]	
	33.2 ± 5.8	CN(C)CCCC1(c2ccc(F)cc2)OCc2c(I)cccc21 (stereo not drawn) [Compound 22, 3-(1-(4-Fluorophenyl)-4-iodo-1,3-dihydroisobenzofuran-1-yl)-N,N-dimethylpropan-1-amine]	
17.4 ± 0.8		CN(C)CCCC1(c2ccc(F)cc2)OCc2cc(CN)ccc21 (stereo not drawn) [Compound 5, 3-(5-(Aminomethyl)-1-(4-fluorophenyl)-1,3-dihydroisobenzofuran-1-yl)-N,N-dimethylpropan-1-amine]	
24.8 ± 1.1		CN(C)CCCC1(c2ccc(F)cc2)OCc2cc(CN3CCN(c4cccc(Cl)c4Cl)CC3)ccc21 (stereo not drawn) [Compound 10, 3-(5-((4-(2,3-Dichlorophenyl)piperazin-1-yl)methyl)-1-(4-fluorophenyl)-1,3-dihydroisobenzofuran-1-yl)-N,N-dimethylpropan-1-amine]	
29.0 ± 1.3		CN(CCCC1(c2ccc(F)cc2)OCc2cc(C#N)ccc21)Cc1ccnc2ccccc12 (stereo not drawn) [Compound 48, 1-(4-Fluorophenyl)-1-(3-(methyl(quinolin-4-ylmethyl)amino)propyl)-1,3-dihydroisobenzofuran-5-carbonitrile]	
59.6 ± 1.0		CN(CCCC1(c2ccc(F)cc2)OCc2cc(C#N)ccc21)Cc1csc2ccccc12 (stereo not drawn) [Compound 45, 1-(3-((Benzo[b]thiophen-3-yl-methyl)(methyl)amino)propyl)-1-(4-fluorophenyl)-1,3-dihydroisobenzofuran-5-carbonitrile]	
	16.4 ± 0.3	CN(C)CCCC1(c2ccc(F)cc2)OCc2cc(CN3CCN(c4ccccc4)CC3)ccc21 (stereo not drawn) [Compound 8, 3-(1-(4-Fluorophenyl)-5-((4-phenylpiperazin-1-yl)methyl)-1,3-dihydroisobenzofuran-1-yl)-N,N-dimethylpropan-1-amine]	
		CN(C)CCCC1(c2ccc(F)cc2)OCc2cc(/C=C/c3ccccc3)ccc21 (single isomer, unassigned; (+)) [(+)62]	24°C dissociation t½ calculated to a t½ at 18°C (hSERT WT): 132.3 ± 8.5 min; [3H] S-1 dissoc. t½ (min) at 24°C (hSERT WT; 30 µM compound, 24°C, COS-7 membranes, hSERT WT): 54.9 ± 3.5 min
	22.1 ± 1.5	CN(C)CCCC1(c2ccc(F)cc2)OCc2cc(CNCc3ccc4ccccc4c3)ccc21 (stereo not drawn) [Compound 13, 3-(1-(4-Fluorophenyl)-5-(((naphthalen-2-ylmethyl)amino)methyl)-1,3-dihydroisobenzofuran-1-yl)-N,N-dimethylpropan-1-amine]	
	60.1 ± 1.0	CN(CCCC1(c2ccc(F)cc2)OCc2cc(C#N)ccc21)Cc1ccc2ccccc2c1 (stereo not drawn) [Compound 49, 1-(4-Fluorophenyl)-1-(3-(methyl(naphthalen-2-ylmethyl)amino)propyl)-1,3-dihydroisobenzofuran-5-carbonitrile]	
43.1 ± 6.2		CN(C)CCCC1(c2ccc(F)cc2)OCc2cc(-c3cccc(N)c3)ccc21 (stereo not drawn) [Compound 61]	
	11.4 ± 0.2	CN(C)CCCC1(c2ccc(F)cc2)OCc2cc(CNCc3ccc4c(c3)Cc3ccccc3-4)ccc21 (stereo not drawn) [Compound 14, 3-(5-((((9H-Fluoren-2-yl)methyl)amino)methyl)-1-(4-fluorophenyl)-1,3-dihydroisobenzofuran-1-yl)-N,N-dimethylpropan-1-amine]	
		CN(CCCC1(c2ccc(F)cc2)OCc2cc(C#N)ccc21)CCc1ccccc1 (stereo not drawn) [Compound 42, 1-(4-Fluorophenyl)-1-(3-(methyl(phenethyl)amino)propyl)-1,3-dihydroisobenzofuran-5-carbonitrile]	[3H] S-1 dissoc. t½ (min) at 24°C (hSERT WT): 45.4 ± 5.9 min; 24°C dissociation t½ calculated to a t½ at 18°C (hSERT WT; [2]): 110 ± 14 min
		CNCCCC1(c2ccc(F)cc2)OCc2cc(C#N)ccc21 (stereo not drawn) [Compound 38, 1-(4-Fluorophenyl)-1-(3-(methylamino)propyl)-1,3-dihydroisobenzofuran-5-carbonitrile]	Ki (NET): 880 ± 12.4 nM; Ki (SERT): 5.04 ± 0.176 nM; Ki(NET)/Ki (SERT) (SERT; Table 3): 174.6
	41.2 ± 2.8	CN(CCCC1(c2ccc(F)cc2)OCc2cc(C#N)ccc21)Cc1ccc(N(C)C)cc1 (stereo not drawn) [Compound 46, 1-(3-((4-(Dimethylamino)benzyl)(methyl)amino)propyl)-1-(4-fluorophenyl)-1,3-dihydroisobenzofuran-5-carbonitrile]	
		CN(C)CCCC1(c2ccc(F)cc2)OCc2cc(-c3ccc([N+](=O)[O-])cc3)ccc21 (stereo not drawn) [Compound 19, 3-(1-(4-Fluorophenyl)-5-(4-nitrophenyl)-1,3-dihydroisobenzofuran-1-yl)-N,N-dimethylpropan-1-amine]	[3H] S-1 dissoc. t½ (min) at 24°C (hSERT WT): 40.2 ± 7.0 min; 24°C dissociation t½ calculated to a t½ at 18°C (hSERT WT; [2]): 97 ± 17 min
24.7 ± 5.4		CN(C)CCCC(O)(c1ccc(Br)cc1)c1ccc(C#N)cc1CO (stereo not drawn) [Compound 24, 4-(1-(4-Bromophenyl)-4-(dimethylamino)-1-hydroxybutyl)-3-(hydroxymethyl)benzonitrile]	
		CN(CCCC1(c2ccc(F)cc2)OCc2cc(C#N)ccc21)Cc1ccc2c(c1)Cc1ccccc1-2 (stereo not drawn) [Compound 50, 1-(3-(((9H-Fluoren-2-yl)methyl)(methyl)amino)propyl)-1-(4-fluorophenyl)-1,3-dihydroisobenzofuran-5-carbonitrile]	Ki(NET)/Ki (SERT) (SERT; Table 3): >100
	52.0 ± 7.6	CN(CCCC1(c2ccc(F)cc2)OCc2cc(C#N)ccc21)C1CC=C(c2c[nH]c3ccccc23)CC1 (stereo not drawn) [Compound 60, 1-(3-((4-(1H-Indol-3-yl)cyclohex-3-en-1-yl)(methyl)amino)propyl)-1-(4-fluorophenyl)-1,3-dihydroisobenzofuran-5-carbonitrile]	

SMILES	[3H] S-1 dissoc. t½ (min) at 18°C (hSERT WT; [1]) [min]	[3H] S-1 dissoc. t½ (min) at 18°C (hSERT WT) [min]	further results
CN(C)CCCC1(c2ccc(F)cc2)OCc2cc(I)ccc21 (stereo not drawn) [Compound 63]	34.4 ± 6.6		
CN(C)CCCC1(c2ccc(F)cc2)OCc2cc(/C=C/c3ccccc3)ccc21 (single isomer, unassigned; (-)) [(−)62]	37.3 ± 9.5		
